We go through five compounds from patent publication US4173654A, “Novel fluorohydrocarbons” (California Institute of Technology, priority 1977, dated 1979).

Series [1] is described as follows: Oxygen solubility measured by gas chromatograph having a thermal conductivity detector. In kind it is physicochemical. To be noted: 25° C., 760 mm O2 pressure. The method, then:
Oxygen solubilities were measured at 25° C. and 760 mm O2 pressure for representative hybrid, fluoroolefin and prior art compounds by means of a gas chromatograph having a thermal conductivity detector and calculated from molar volume and ΔH(vap) by the method of Fedors (Polymer, Engr. Sci. 14 147 (1974). Good agreement was obtained as shown in the following table: […]

A short description of series [2]: Literature values or other data (D, V, δ, BP). In kind it is physicochemical.
For series [3] the following is noted: 3M data; cited from earlier work.

Where two headings read alike, the source gives them in different places.

For the compound `CCOC(=O)CC(C(F)(F)F)(C(F)(F)F)C(F)(F)F`, the “Measured O2 Solubility” value in series [1] worked out at 34.4 cc O2 /100 cc FC. The BP in series [2] (36mm) amounted to 53 °C. In series [2] (unit not given), this compound showed a D of 1.4895, a V of 205.5 and a δ of 7.39.
With `FC(F)(F)C(=C(C(F)(C(F)(F)F)C(F)(F)F)C(F)(C(F)(F)F)C(F)(F)F)C(F)(F)F`, the “Measured O2 Solubility” value in series [1] is on record as 39.5 cc O2 /100 cc FC. Also, the BP in series [2] (735mm) was found to be 110 °C. In series [2] (unit not given), this compound showed a D of 1.820, a V of 219.8 and a δ of 6.4.
`CCCCC(C(F)(F)F)(C(F)(F)F)C(F)(F)F` [(CF3)3 C(CH2)3 CH3]: the “Measured O2 Solubility” value in series [1] is given as 41.2 cc O2 /100 cc FC. In addition, in series [2], the D was found to be 1.393 g/cc, the V was 198.3 cc/mole and the δ is recorded as 5.98 Hb. The compound also came in with a BP in series [2] (750mm) of 101.5 °C.
Turning to `C=CCC(C(F)(F)F)(C(F)(F)F)C(F)(F)F` [(CF3)3 CCH2 CHCH2], in series [1], the “Measured O2 Solubility” value is 48 cc O2 /100 cc FC. In series [2] (735mm), this compound gave a BP of 76 °C. Besides, in series [2] (unit not given), the D stood at 1.442, the V is reported as 180.31 and the δ worked out at 6.0.
As for `FC(F)(F)C(F)(F)C(F)(F)C(F)(F)N(C(F)(F)C(F)(F)C(F)(F)C(F)(F)F)C(F)(F)C(F)(F)C(F)(F)C(F)(F)F` [(n-C4 F9)3 N(FC-43), reference compound], the “3M solubility data (Literature Values)” value in series [3] is 38.9 cc O2 /100ccFC. Further, the “Measured O2 Solubility” value in series [1] is 36.8 cc O2 /100 cc FC.
